Activity calls are given as the source filed them. No cut-off for these calls is given here.

Biological target in one assay: not listed separately
Kind of assay: (§1) Inhibition of human PDE2 using FAM-labeled cAMP as substrate after 60 mins in presence of cGMP by florescence polarization assay.
The term Ki denotes the dissociation constant of the complex between target and ligand, obtained from inhibition or displacement. Consider `CC(C)[C@@H](NC(=O)c1cc(=O)[nH]c(N(C)C)n1)c1ccc(SC(F)(F)F)cc1`, for which the Ki lay within 0.37 to 5.1 nM.
With `CN(C)c1nc(C(=O)NC2(c3ccc(C(F)(F)F)c(F)c3)CC2)cc(=O)[nH]1`, the inhibition constant (Ki) lay in the range of 0.9 to 0.96 nM.
On to `C[C@@H](NC(=O)c1cc(=O)[nH]c(N(C)C)n1)c1ccc(OC(F)(F)F)c(Cl)c1`, for which the Ki stood at 1.6 nM.
Same read-out and setting: then `C[C@@H](NC(=O)c1cc(=O)[nH]c(N(C)C)n1)c1ccc(SC(F)(F)F)cc1`, with 0.32 to 0.82 nM; and `CC[C@@H](NC(=O)c1cc(=O)[nH]c(N(C)C)n1)c1ccc(SC(F)(F)F)cc1`, with 0.69 to 5.05 nM; and `CN(C)c1nc(C(=O)N[C@@H](c2ccc(OC(F)(F)F)c(F)c2)C(C)(C)O)cc(=O)[nH]1`, with 0.12 nM.

The species entered for another assay is Homo sapiens. The description is as §1.
With `COc1ccc(Cc2nc(O)c3c(C)nc([C@@H](CCCc4ccccc4)[C@@H](C)O)n3n2)cc1OC`, the inhibition entry is “Active”.
